# Laboratory results as given in PMC11466185, “Mechanisms and efficacy of small molecule latency-promoting agents to inhibit HIV reactivation ex vivo” (JCI Insight, 2024).
# Like-named read-outs stand apart in the source and are kept apart here.
# Columns and labels:
# [1] = test system: HIV transcripts (TAR, LLTR, Pol, PolyA, TatRev); test: Baseline HIV transcription without activation, PBMCs from ART-suppressed PWH, 24 hours; type: cell-based; settings: no activation; for LLTR HIV transcripts (DMSO = 100) / Pol HIV transcripts (DMSO = 100) / PolyA HIV transcripts (DMSO = 100) / Tat-Rev HIV transcripts (DMSO = 100) / PolyA/LLTR ratio (DMSO = 1) / TatRev/PolyA ratio (DMSO = 1) / TAR HIV transcripts (DMSO = 100) / LLTR/TAR ratio (DMSO = 1): ruxolitinib 4μM, dinaciclib 8nM, AZD4573 8nM, KRIBB11 2.5μM; for LLTR HIV transcripts (DMSO = 100) / Pol HIV transcripts (DMSO = 100) / PolyA HIV transcripts (DMSO = 100) / Tat-Rev HIV transcripts (DMSO = 100) / TAR HIV transcripts (DMSO = 100): pladienolide B 10nM; for PolyA/LLTR ratio (DMSO = 1) / TatRev/PolyA ratio (DMSO = 1) / LLTR/TAR ratio (DMSO = 1): pladienolide B
# Experimental: For a selection of the compounds, we evaluated the ability to reduce baseline HIV transcription without activation. PBMCs were cultured in the presence of individual drugs in DMSO or DMSO alone as a control and harvested after 24 hours. For each drug, we tested PBMCs from at least 3 PWH, as indicated in Supplemental Figure 5B. […] Likewise, pladienolide B appeared to reduce the level of multiply spliced transcripts (33%, Supplemental Figure 5, A and B).
# PBMCs were isolated from fresh venous blood from 16 ART-suppressed HIV-infected study participants using Ficoll density gradient centrifugation. The cells were seeded at 6 × 10^6 cells/well and cultured with antiretrovirals (nevirapine and indinavir) to prevent new infection. On the next day, PBMCs were activated with anti-CD3/CD28–coated beads (Invitrogen) in the presence of 20 U/mL IL-2 and individual drugs in DMSO or DMSO alone as a control. Since we were limited in the PBMC yield per study participant, different study participants were used for different experiments (such as the initial screen, dose response, different time points, and studies in activated vs. unstimulated cells). In addition, the yields of PBMCs were sometimes insufficient to test all drugs for a given question or experiment.
# Total cellular DNA and RNA were extracted in parallel using Trireagent (Molecular Research Center) according to the manufacturer’s instructions, except for study participants 2147 and 2461 (Figure 4), for whom DNA and RNA were extracted using the QIAGEN AllPrep DNA/RNA/miRNA Universal Kit with on-column DNase I treatment of the RNA and the manufacturer’s modification to enhance recovery of short transcripts. RNA and DNA concentrations were measured using UV spectrophotometry (NanoDrop One, Thermo Fisher Scientific). Total initiated HIV (TAR) transcripts were quantified by a 3-step polyadenylation RT-ddPCR as described previously ([8], [84]). HIV 5′ elongated (LLTR), midtranscribed (Pol), completed (PolyA), and multiply spliced (TatRev) transcripts were quantified by a 2-step RT-ddPCR as previously described ([8]). The levels of each HIV transcript were normalized to 1 μg of total cellular RNA and expressed as a percentage of the (activated) DMSO control. To quantify virion-associated RNA in supernatant, RNA was extracted from 400 μL supernatant using Trireagent-LS (Molecular Research Center) according to the manufacturer’s instructions. Levels of U3-polyadenylated HIV RNA were measured in the supernatant by RT-ddPCR, normalized to copies/mL, and expressed as a percentage of the activated DMSO. For measuring the HIV infection frequency at day 6, the HIV DNA U3-U5 LTR region was quantified by using ddPCR as described previously ([8]). HIV DNA copies were normalized to cell numbers according to the mass of DNA input per well (calculated from the DNA concentration and input volume) ([85]).
# Figure S5. CDK-inhibitors appear to decrease baseline HIV splicing even in the absence of T cell activation. Each drug was tested in PBMCs from at least three ART-suppressed study participants and PBMCs were aliquoted into wells at 6x10^6 cells/well. The cells were cultured with antiretrovirals but without activation in the presence of individual drugs in (1 picture or pasted object on this page, not shown here)
# DMSO or DMSO alone as control. After 24h, total RNA was extracted and the progression through different stages of HIV transcription was quantified by measuring the levels of initiated (TAR), 5’ elongated (LLTR), mid-transcribed/unspliced (Pol), completed (PolyA) and multiply spliced (TatRev) HIV transcripts. A-B) The levels of all HIV transcripts were quantified, normalized to 1 µg of total cellular RNA, and expressed as a percent of the DMSO control (% of DMSO). A) Medians are shown, as well as the values of the individual study participants in different colors. B) The medians from panel A) are presented. The effect of each drug on the different transcripts was studied in three to six study participants, as […]
# [2] = test system: HIV transcripts (PolyA, TatRev); test: Dose-response curves of LPAs: polyadenylated and multiply spliced HIV transcripts 24 hours after activation; type: cell-based; settings: for IC50: 24 h, PBMCs from 1 participant per drug; for MS Tat-Rev (dose-response) / PolyA (dose-response): 24 hours, 1 participant per drug
# Experimental: The IC50 was determined based on the reduction in completed (PolyA) as well as multiply spliced (TatRev) HIV transcripts relative to activated DMSO (Table 1).
# Figure 2 Dose-response curves of LPAs. Dose-response curves for each drug were generated in PBMCs from 1 ART-suppressed study participant per drug. PBMCs were aliquoted into wells at 6 × 10^6 cells/well, activated, and cultured with antiretrovirals in the presence of DMSO alone (no drug) or varying concentrations of individual drugs in DMSO. After 24 hours, the levels of polyadenylated and multiply spliced HIV transcripts were quantified by RT-ddPCR, normalized to 1 μg of total cellular RNA, and expressed as a percentage of the activated DMSO control (% of activated DMSO).
# [3] = Human immunodeficiency virus 1, PBMC, reduction in PolyA HIV transcripts relative to activated DMSO, read-out: Completed (PolyA) IC50
# [4] = Human immunodeficiency virus 1, PBMC, reduction in TatRev HIV transcripts relative to activated DMSO, read-out: Multiply spliced (TatRev) IC50
Compound,LLTR HIV transcripts (DMSO = 100) ([1]; participant 156),Pol HIV transcripts (DMSO = 100) ([1]; participant 156),PolyA HIV transcripts (DMSO = 100) ([1]; participant 156),Tat-Rev HIV transcripts (DMSO = 100) ([1]; participant 156),PolyA/LLTR ratio (DMSO = 1) ([1]; participant 156),TatRev/PolyA ratio (DMSO = 1) ([1]; participant 156),LLTR HIV transcripts (DMSO = 100) ([1]; participant 163),Pol HIV transcripts (DMSO = 100) ([1]; participant 163),PolyA HIV transcripts (DMSO = 100) ([1]; participant 163),Tat-Rev HIV transcripts (DMSO = 100) ([1]; participant 163),PolyA/LLTR ratio (DMSO = 1) ([1]; participant 163),TatRev/PolyA ratio (DMSO = 1) ([1]; participant 163),LLTR HIV transcripts (DMSO = 100) ([1]; participant 2027),Pol HIV transcripts (DMSO = 100) ([1]; participant 2027),PolyA HIV transcripts (DMSO = 100) ([1]; participant 2027),TAR HIV transcripts (DMSO = 100) ([1]; participant 2027),LLTR/TAR ratio (DMSO = 1) ([1]; participant 2027),PolyA/LLTR ratio (DMSO = 1) ([1]; participant 2027),"IC50 [2, 3] [nM]","IC50 [2, 4] [nM]",other results
CNc1ccc([N+](=O)[O-])c(Nc2ccc3[nH]ncc3c2)n1 [KRIBB11],90.95,85.77,144.03,735.63,1.584,5.108,72.79,89.89,74.5,0,1.0234,0,71.57,64.26,97.36,144.19,0.4964,1.36,,,"HIV transcription levels in the absence of T cell activation (in words) ([1]; 24 hours, at least 3 PWH): little effect"
CN1CC[C@H](c2c(O)cc(O)c3c(=O)cc(-c4ccccc4Cl)oc23)[C@H](O)C1 [alvocidib],,,,,,,,,,,,,,,,,,,3.41,4.23,MS Tat-Rev (dose-response) ([2]; dose 4 nM): 60.15 % of activated DMSO; PolyA (dose-response) ([2]; dose 4 nM): 52.96 % of activated DMSO; MS Tat-Rev (dose-response) ([2]; dose 10 nM): 21.37 % of activated DMSO; PolyA (dose-response) ([2]; dose 10 nM): 17.13 % of activated DMSO; MS Tat-Rev (dose-response) ([2]; dose 40 nM): 5.52 % of activated DMSO; PolyA (dose-response) ([2]; dose 40 nM): 5.99 % of activated DMSO; MS Tat-Rev (dose-response) ([2]; dose 100 nM): 1.88 % of activated DMSO; PolyA (dose-response) ([2]; dose 100 nM): 3.2 % of activated DMSO
pladienolide B,85.34,133.38,150.05,66.69,1.758,0.4444,92.55,107.42,106.43,0,1.15,0,81.44,43.71,90.63,125.58,0.6485,1.113,,,"Multiply spliced HIV transcripts without activation, median relative to DMSO ([1]; 24 hours, at least 3 PWH): 33%; HIV splicing (TatRev/PolyA) without activation ([1]; 24 hours, not statistically significant): severely reduce; LLTR HIV transcripts (DMSO = 100) ([1]; participant 1379): 18.62; Pol HIV transcripts (DMSO = 100) ([1]; participant 1379): 16.13; PolyA HIV transcripts (DMSO = 100) ([1]; participant 1379): 25.8; TAR HIV transcripts (DMSO = 100) ([1]; participant 1379): 228.89; LLTR/TAR ratio (DMSO = 1) ([1]; participant 1379): 0.08133; PolyA/LLTR ratio (DMSO = 1) ([1]; participant 1379): 1.3861; MS Tat-Rev (dose-response) ([2]; dose 0.1 nM): 34.26 % of activated DMSO; PolyA (dose-response) ([2]; dose 0.1 nM): 47.95 % of activated DMSO; MS Tat-Rev (dose-response) ([2]; dose 1 nM): 17.07 % of activated DMSO; PolyA (dose-response) ([2]; dose 1 nM): 43.55 % of activated DMSO; MS Tat-Rev (dose-response) ([2]; dose 10 nM): 0.76 % of activated DMSO; PolyA (dose-response) ([2]; dose 10 nM): 4 % of activated DMSO; IC50 ([2]; reduction in PolyA HIV transcripts relative to activated DMSO, read-out: Completed (PolyA) IC50): 0.18 nM; IC50 ([2]; reduction in TatRev HIV transcripts relative to activated DMSO, read-out: Multiply spliced (TatRev) IC50): 0.06 nM"
O=c1c(O)c(-c2ccc(O)c(O)c2)oc2cc(O)cc(O)c12 [quercetin],,,,,,,,,,,,,,,,,,,1410,1130,MS Tat-Rev (dose-response) ([2]; dose 5 µM): 15.52 % of activated DMSO; PolyA (dose-response) ([2]; dose 5 µM): 17.57 % of activated DMSO; MS Tat-Rev (dose-response) ([2]; dose 10 µM): 14.99 % of activated DMSO; PolyA (dose-response) ([2]; dose 10 µM): 19.46 % of activated DMSO
